Laboratory results taken from US11667602B2, “Compounds and their use” (AstraZeneca AB, priority 2020, dated 2023).
In brackets after ≈: the same amount, converted by molar mass.

Assays:
human RXFP1 [1] = target: T1, human RXFP1 (Homo sapiens, UniProt Q9HBX9); experiment: Human RXFP1 Phospho-ERK Assay (Test H); type: cell-based; design: expressed in transfected cells; conditions: HEK293s cells stably transfected with human RXFP1; phospho-ERK (Thr202/Tyr204) HTRF, 5 min stimulation; read-out: Test H phospo-ERK assay EC50
T1 sequence (Q9HBX9 1-757): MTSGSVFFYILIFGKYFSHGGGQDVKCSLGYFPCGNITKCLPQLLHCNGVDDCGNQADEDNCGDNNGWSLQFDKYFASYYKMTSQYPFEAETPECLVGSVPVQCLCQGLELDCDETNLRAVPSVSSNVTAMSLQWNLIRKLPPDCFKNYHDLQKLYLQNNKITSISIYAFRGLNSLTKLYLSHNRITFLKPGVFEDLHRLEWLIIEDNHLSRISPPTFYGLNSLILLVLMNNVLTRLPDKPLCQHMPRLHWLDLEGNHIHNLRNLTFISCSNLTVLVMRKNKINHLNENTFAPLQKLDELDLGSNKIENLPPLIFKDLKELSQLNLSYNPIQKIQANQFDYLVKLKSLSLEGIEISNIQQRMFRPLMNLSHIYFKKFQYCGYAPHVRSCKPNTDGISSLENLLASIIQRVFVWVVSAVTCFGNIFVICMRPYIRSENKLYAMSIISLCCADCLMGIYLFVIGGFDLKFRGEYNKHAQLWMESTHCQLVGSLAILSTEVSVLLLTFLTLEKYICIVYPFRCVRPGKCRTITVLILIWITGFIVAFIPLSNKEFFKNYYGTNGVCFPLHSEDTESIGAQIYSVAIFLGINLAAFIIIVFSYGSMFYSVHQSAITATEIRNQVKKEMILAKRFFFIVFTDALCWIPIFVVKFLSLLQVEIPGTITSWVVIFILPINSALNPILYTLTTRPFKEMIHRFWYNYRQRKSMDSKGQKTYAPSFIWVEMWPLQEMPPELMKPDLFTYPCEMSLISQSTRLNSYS
Source text: (§1) Cells: HEK293s cells stably transfected with human RXFP1 in pIRESneo3 was employed.

human RXFP1 [2] = target: T1, human RXFP1; experiment: Human RXFP1 cGMP Production Assay (Test G); type: cell-based; design: expressed in transfected cells; conditions: HEK293s cells stably transfected with human RXFP1; Green GENIe cGMP biosensor, area under curve 0 to 90 min
Source text: Human RXFP1 cGMP Production Assay (Test G)
To profile compounds for RXFP1 agonist activity with respect to cGMP production, the Green GENIe cGMP Assay (Montana Molecular; catalogue number D800G) was employed. The assay is based on an nmNeonGreen fusion protein fluorescent biosensor delivered to mammalian cells in a BacMam vector. Fluorescence is reduced when cGMP is bound to the biosensor.
as §1
Day 1 • 1. Cells were splitted one day ahead of transduction and seeded to 63 000 cells/cm2 in DMEM medium with 10% FBS without antibiotics in a tissue culture flask.
Day 2 • 2. […] A viral transduction mastermix was prepared by mixing reagents in the following proportions for a single well: • 6 μL GENIe BacMAM vector • 0.2 μL 500 mM sodium butyrate • 13.8 μL DMEM medium with 10% FBS • 20 μL total volume • 5. Cells and transduction mastermix were mixed in proportions 30 μL cells and 20 μL mastermix for a single well. • 6. […] Plate was incubated in the dark at 37° C., 5% CO2 for 24 h.
Day 3 • 8. Medium was removed from plates using a Bluewasher (BluCatBio). • 9. 20 μL assay buffer was added with a Multidrop Combi (ThermoFisher). • 10. Plate was incubated in the dark at room temperature for 30 min prior to assaying. • 11. Plates were assayed using a FLIPR Tetra (Molecular Devices): 10 μL compound diluted with assay buffer was added to each well by the FLIPR Tetra and measuring green fluorescence over time for up to 3 h.
Data was processed using Screener software (Genedata A G). After subtraction of background fluorescence (before addition of compounds), area under curve values from 0 to 90 min after compound addition was used for calculation of responses.

Solubility (Test F) = type: physicochemical; conditions: arithmetic mean if run multiple times
Description: The assay was conducted according to the Solubility Assay described in pages 164-167 of Wernevik, J. et al., “A Fully Integrated Assay Panel for Early Drug Metabolism and Pharmacokinetics Profiling”, Assay and Drug Development Technologies, 2020, 18(4), 157-179. Data are reported in Table 36 as solubility ([…]. Where the assay was run multiple times for the same compound, the arithmetic mean is reported.

[3] = Rat Hepatocyte Stability (Test E); type: in vitro ADME; conditions: rat, hepatocytes, geometric mean if run multiple times
In short: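 Intrinsic clearance in rat hepatocytes, expressed as μl/min/10^6 cells, following the literature integrated DMPK panel method. Repeat determinations combined as geometric mean.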

EC50 (human RXFP1 [1])	EC50 (human RXFP1 [2])	solubility (Solubility (Test F))	hepatocyte CLint [3]	Structure (SMILES)
81 nM	300 nM	> 1000 µM	16 µL/min/1e6 cells	COc1cc(F)c(-c2ccc(C(=O)O)cc2)cc1C(=O)N[C@H]1[C@@H](C(=O)Nc2cccc(S(=O)(=O)C(F)(F)F)c2)[C@@H]2C=C[C@H]1C2 (single isomer, unassigned) [Example 552]
	19 nM	240 µM (≈ 160 µg/mL)	17 µL/min/1e6 cells	COc1cc(F)c(O[C@H]2CC[C@@H](C(=O)O)CC2)cc1C(=O)N[C@@H]1[C@H]2CC[C@H](C2)[C@@H]1C(=O)Nc1ccc(F)c(S(F)(F)(F)(F)F)c1 [Example 433]
0.36 nM	3.7 nM	45 µM (≈ 30.7 µg/mL)	23 µL/min/1e6 cells	COc1cc(F)c(O[C@H]2CC[C@@](C)(C(=O)O)CC2)cc1C(=O)N[C@@H]1[C@H]2CC[C@H](C2)[C@@H]1C(=O)Nc1ccc(F)c(S(F)(F)(F)(F)F)c1 [Example 353]
1.2 nM	9.3 nM	130 µM (≈ 87.2 µg/mL)	35 µL/min/1e6 cells	COc1cc(F)c(O[C@H]2CC[C@@](C)(C(=O)O)CC2)cc1C(=O)N[C@@H]1[C@H]2CC[C@H](C2)[C@@H]1C(=O)Nc1cccc(S(=O)(=O)C(F)(F)F)c1 [Example 208, (1S,4s)-4-(2-Fluoro-4-methoxy-5-(((1S,2R,3S,4R)-3-((3-((trifluoromethyl)sulfonyl)phenyl)carbamoyl)bicyclo[2.2.1]heptan-2-yl)carbamoyl)phenoxy)-1-methylcyclohexane-1-carboxylic acid]
